Patent US7541032B2, “Antigen uptake receptor for Candida albicans on dendritic cells” (priority 2002, dated 2009)
Each block holds one molecule with its values, some of them ahead of it.

Tests used:
DC-SIGN [1] = biological target: T1, DC-SIGN (Homo sapiens, UniProt Q9NNX6); experiment: Binding of conidiae and hyphae of other Candida strains/species and Aspergillus fumigatus to K-SIGN cells; assay type: cell-based
T1 construct: expressed in transfected cells
T1 sequence (Q9NNX6 1-404): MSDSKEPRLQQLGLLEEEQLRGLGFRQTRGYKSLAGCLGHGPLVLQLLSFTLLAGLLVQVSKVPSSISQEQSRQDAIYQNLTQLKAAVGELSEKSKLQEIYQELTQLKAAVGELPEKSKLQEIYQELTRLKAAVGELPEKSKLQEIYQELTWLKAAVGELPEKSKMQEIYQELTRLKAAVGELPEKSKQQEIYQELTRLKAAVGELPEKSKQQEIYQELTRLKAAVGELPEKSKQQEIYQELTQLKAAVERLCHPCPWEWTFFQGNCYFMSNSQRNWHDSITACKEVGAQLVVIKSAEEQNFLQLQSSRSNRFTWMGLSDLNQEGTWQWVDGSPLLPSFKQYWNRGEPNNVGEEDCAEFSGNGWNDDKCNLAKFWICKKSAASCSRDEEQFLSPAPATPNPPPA
Description: (§1) DC or K562 transfected cells were stained with anti-CD45-APC prior to exposure to FITC labeled live or heat inactivated Candida. DC or K562 cells expressing DC-SIGN or ALCAM (control) were or were not preincubated for 10 minutes at room temperature with mannan (300 μg/mL), mannose (100 mM), facose (100 mM), EGTA (5 mM), or a mixture of AZN-D1 and AZN-D3 (20 μg/mL), in 20 mM Tris pH 8.0, containing 150 mM NaCl, 1 mM CaCl2, 2 mM MgCl2, and 1% BSA (TSA buffer) or, when EGTA was used, in PBS. Subsequently, FITC labeled Candida were resuspended to the appropriate concentrations either in TSA or PBS and added in various cell/C. albicans ratios. After incubation, cell-Candida conjugates were analyzed by flow cytometry, and the relative difference in mean fluorescence intensity of the double labeled events compared with that of control cells was calculated. Cells were labeled with anti-CD45APC to discriminate cells binding FITC-labeled yeast particles from yeast aggregates.
Further studies were performed as above but using other strains or species of yeast and also comparing binding of the conidiae versus binding of the hyphal form of the organism. […] These are clinical strains isolated from patients. It is seen that the conidiae or single-celled form of the yeast bind to DC-SIGN better than do the hyphae. […]

DC-SIGN [2] = biological target: T1, DC-SIGN; experiment: Binding of FITC-labeled C. albicans to K562 transfectants expressing DC-SIGN (K-SIGN), flow cytometry; assay type: cell-based; conditions: for Inhibition of binding of C. albicans to K562 cells transfected with wild-type DC-SIGN (FIG. 1F): K562 wild-type DC-SIGN transfectants
Description: (§2) Immature dendritic cells (imDC) were generated from human peripheral blood monocytes as described previously (Vissers et al., 2001). Briefly, monocytes were isolated by adherence to plastic and cultured in the presence of IL-4 (500 U/mL) and GM-CSF (800 U/mL) for 6-7 days. K562 transfectants either expressing DC-SIGN or ALCAM were generated by transfection of K562 cells with 10 μg of plasmid by electroporation as described previously (Geijtenbeek et al., 2000b; Nelissen et al., 2000). Positive cells were sorted several times to obtain stable transfectants with similar expression levels of DC-SIGN.
(§3) Labeling of Candida cells was performed as follows: viable or heat killed (60 minutes at 56° C. or 30 minutes at 100° C.) yeast cells were resuspended to 2×10^8/mL in 0.1 mg/mL FITC in 0.05 M carbonate-bicarbonate buffer (pH 9.5). After incubation for 15 minutes at room temperature in the dark, FITC-labeled Candida cells were washed twice in PBS containing 1% BSA (PBA buffer) and analyzed by flow cytometry.
as §1
The erythroleukemic cell line K562 transfectants stably expressing DC-SIGN (K-SIGN) (Geijtenbeek et al., 2000a) were used to investigate the potential of C. albicans to bind DC-SIGN in the absence of any other known C. albicans, receptors. Binding to ICAM-3 fluorescent beads was used as a positive control for DC-SIGN function. […] The monoclonal antibodies AZN-D1 and AZN-L50 were used to detect DC-SIGN and ALCAM, respectively. The K562 transfectants stably express DC-SIGN and ALCAM, (FIGS. 1A-1 through 1A-3) with expression levels similar to that observed previously (Geijtenbeek et al., 2000a; Nelissen et al., 2000).
Transfectant cells were labeled with CD45APC to discriminate cells binding FITC labeled yeast from yeast aggregates. […]

immature DC = experiment: Phagocytosis of FITC-labeled Candida by immature DC, confocal microscopy; assay type: cell-based, human; conditions: 60 minutes at 37° C.
Description: Immature DC (5×10^5) were incubated with unopsonized live FITC-labeled Candida cells (2.5×10^6) in a total volume of 500 μL at 37° C. in a water bath with orbital shaking at 150 rpm for various periods of time. At the end of the incubation period, the DC binding Candida are separated from unbound Candida by a Ficoll gradient.
The samples were then adhered on poly-L-lysine coated glass coverslips, fixed in 1% paraformaldehyde in PBS for 15 minutes at room temperature, and permeabilized in cold methanol for 5 minutes on ice. After a blocking step in PBS/3% BSA for 60 minutes at room temperature, cells were labeled with mAb (10 μg/mL in PBS/3% BSA) for 60 minutes at room temperature and subsequently incubated with Cy5-conjugated Goat-anti-Mouse F(ab′)2 fragments for 30 minutes at room temperature. Finally, the anti-bleach reagent Mowiol was added, and samples were analyzed using a MRC1024 confocal microscope (Bio-Rad).
It was recently shown that DC-SIGN is an antigen uptake receptor, facilitating phagocytosis within minutes (Engering et al., 2002). In order to determine whether DC-SIGN contributes also to the internalization of C. albicans by immature DC, experiments were performed allowing DC to interact with FITC-labeled Candida for 60 minutes at 37° C. to allow phagocytosis. […]

[3] = tested on: immature dendritic cells (imDC); experiment: Binding of C. albicans to immature monocyte-derived dendritic cells in the presence of blocking agents, flow cytometry; assay type: cell-based, human; conditions: for Inhibition of binding of Candida to imDC at ratios 1:2, 1:5 and 1:10 (FIG. 3D): imDC:C. albicans 1:2, 1:5, 1:10; for Inhibition of imDC/Candida binding (FIG. 5): panel of possible inhibitors, buffer TSA as control
Description: as §2, §3, §1
In an attempt to establish the contribution of both the mannose receptor and DC-SIGN, immature DC were incubated with specific inhibitors before interacting with C. albicans. Immature monocyte derived dendritic cells (50×10^3), which were CD45APC labeled, were incubated with heat-inactivated Candida (500×10^3) in the absence or presence of AZN-D1 and AZN-D3, anti-DC-SIGN mAb (20 μg/mL each), mannose (100 mM), and EGTA (5 mM).

[4] = biological target: T2, Activated Leukocyte Cell Adhesion Molecule ALCAM (UniProt Q13740 28-583, limits assumed); experiment: fluorescent beads adhesion assay, flow cytometry, K562 transfectants
T2 construct: whole, on cells; also called K-ALCAM (K562 cells transfected with ALCAM)
T2 sequence (looked up): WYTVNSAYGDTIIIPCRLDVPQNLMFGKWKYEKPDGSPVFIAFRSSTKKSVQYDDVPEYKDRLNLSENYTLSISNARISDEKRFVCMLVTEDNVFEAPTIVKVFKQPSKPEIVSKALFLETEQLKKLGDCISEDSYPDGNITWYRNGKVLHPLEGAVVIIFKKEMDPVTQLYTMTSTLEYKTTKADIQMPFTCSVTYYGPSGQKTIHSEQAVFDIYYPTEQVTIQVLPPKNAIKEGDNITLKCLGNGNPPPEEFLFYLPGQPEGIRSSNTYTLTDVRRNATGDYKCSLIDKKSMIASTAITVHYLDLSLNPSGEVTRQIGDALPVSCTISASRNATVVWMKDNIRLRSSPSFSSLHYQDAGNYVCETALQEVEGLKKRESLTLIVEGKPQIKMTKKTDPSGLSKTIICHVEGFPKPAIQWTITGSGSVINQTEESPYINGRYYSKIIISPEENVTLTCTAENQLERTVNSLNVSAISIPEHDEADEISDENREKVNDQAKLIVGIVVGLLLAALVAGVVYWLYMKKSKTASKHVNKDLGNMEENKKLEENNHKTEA
Description: In inhibition studies, the bead adhesion assay was performed in the presence of 0.3 mg/mL mannan, 5 mM EGTA, or 20 μg/mL antibodies against DC-SIGN or ALCAM.
The erythroleukemic cell line K562 transfectants stably expressing DC-SIGN (K-SIGN) (Geijtenbeek et al., 2000a) were used to investigate the potential of *C. albicans* to bind DC-SIGN in the absence of any other known *C. albicans*, receptors.

Molecule: O=C(O)CN(CCN(CC(=O)O)CC(=O)O)CC(=O)O [EDTA]
Inhibition of binding of various Candida species and Aspergillus fumigatus to K-SIGN cells (FIGS. 8A-F) (DC-SIGN [1]; conidiae and hyphae, all cases except possibly C. tropicalis and C. parapsilosis (very low binding)): inhibited

Molecule: O=C(O)CN(CCOCCOCCN(CC(=O)O)CC(=O)O)CC(=O)O [EGTA]
Inhibition of binding of C. albicans by K-SIGN (FIG. 1C) (DC-SIGN [2]; AZN-D1 20 μg/mL, EGTA 5 mM): abrogates binding
Inhibition of binding of C. albicans to K562 cells transfected with wild-type DC-SIGN (FIG. 1F) (DC-SIGN [2]): prevented the binding
Inhibition of binding of live and heat-killed (56° C. or 100° C.) yeast forms of C. albicans by DC-SIGN (FIG. 2) (DC-SIGN [2]; K-SIGN, live and heat-inactivated yeast): inhibited
Blocking of phagocytosis of Candida by immature DC (immature DC): almost completely blocked phagocytosis
Inhibition of binding of conidiae and hyphae to K-SIGN cells (FIG. 6) (DC-SIGN [1]; C. albicans strains V13-12, V15-31, V18-17, C. dubliniensis strains V18-13, 4247, 3588): inhibited
Blocking of binding of C. albicans to immature DC, in words (FIG. 3B) ([3]; EGTA 5 mM, heat-inactivated Candida): most effective blocking agent
Inhibition of binding of Candida to imDC at ratios 1:2, 1:5 and 1:10 (FIG. 3D) [3]: largely eliminated binding
Inhibition of imDC/Candida binding (FIG. 5) [3]: inhibited binding to a large degree

Molecule: C[C@H](O)[C@@H](O)[C@@H](O)[C@H](O)C=O [fucose, L-fucose]
Inhibition of binding of C. albicans to K562 cells transfected with wild-type DC-SIGN (FIG. 1F) (DC-SIGN [2]): some inhibition
Inhibition of binding of Candida to imDC at ratios 1:2, 1:5 and 1:10 (FIG. 3D) [3]: greater inhibitory effects
Inhibition of imDC/Candida binding (FIG. 5) [3]: inhibited binding to a large degree

Molecule: Mannan
Inhibition of binding of Candida to imDC at ratios 1:2, 1:5 and 1:10 (FIG. 3D) [3]: did not block the binding
Inhibition of imDC/Candida binding (FIG. 5) [3]: only minor effects

Molecule: laminarin
Blocking of C. albicans binding on immature monocyte derived DC (β2-integrin / Dectin-1 interference) [3]: did not show any block
Inhibition of imDC/Candida binding (FIG. 5) [3]: only minor effects

Molecule: β-1,2-oligomannoside
Inhibition of imDC/Candida binding (FIG. 5) [3]: greatly inhibited binding

binding result [4]: no binding
B1: ICAM-3-Fc (Fc fusion, UniProt P32942 30-485, looked up)
chain: QEFLLRVEPQNPVLSAGGSLFVNCSTDCPSSEKIALETSLSKELVASGMGWAAFNLSNVTGNSRILCSVYCNGSQITGSSNITVYRLPERVELAPLPPWQPVGQNFTLRCQVEDGSPRTSLTVVLLRWEEELSRQPAVEEPAEVTATVLASRDDHGAPFSCRTELDMQPQGLGLFVNTSAPRQLRTFVLPVTPPRLVAPRFLEVETSWPVDCTLDGLFPASEAQVYLALGDQMLNATVMNHGDTLTATATATARADQEGAREIVCNVTLGGERREARENLTVFSFLGPIVNLSEPTAHEGSTVTVSCMAGARVQVTLDGVPAAAPGQPAQLQLNATESDDGRSFFCSATLEVDGEFLHRNSSVQLRVLYGPKIDRATCPQHLKWKDKTRHVLQCQARGNPYPELRCLKEGSSREVPVGIPFFVNVTHNGTYQCQASSSRGKYTLVVVMDIEAGSSH
notes: Coated on carboxylate-modified TransFluorSpheres; also called ICAM-3-Fc coated beads; ICAM-3 fluorescent beads; not shown: Fc part
